Laboratory results: ChEMBL document CHEMBL5260848, “Recent advancements in the development of bioactive pyrazoline derivatives” (Eur J Med Chem, 2020)
In brackets after ≈: the same amount, converted by molar mass.

Experiments:
Plasmodium falciparum = assay: Antimalarial activity against chloroquine-sensitive Plasmodium falciparum NF54 measured after 72 hrs by giemsa staining based analysis; format: functional, organism-based; conditions: NF54, 72 h
Acetylcholinesterase [1] = biological target: T1, Acetylcholinesterase (Homo sapiens, UniProt P22303)
Carbonic anhydrase 1 = Carbonic anhydrase 1 (Homo sapiens, UniProt P00915)
Ca9-22 = assay: Cytotoxicity against human Ca9-22 cells assessed as reduction in cell viability incubated for 48 hrs by MTT assay; format: functional
HSC-2 = assay: Cytotoxicity against human HSC-2 cells assessed as reduction in cell viability incubated for 48 hrs by MTT assay; format: functional
HSC-3 = assay: Cytotoxicity against human HSC-3 cells assessed as reduction in cell viability incubated for 48 hrs by MTT assay; format: functional
[2] = Cytotoxicity against human HGF cells assessed as reduction in cell viability incubated for 48 hrs by MTT assay; format: functional
[3] = Cytotoxicity against human HPLF cells assessed as reduction in cell viability incubated for 48 hrs by MTT assay; format: functional
[4] = Cytotoxicity against human HPC cells assessed as reduction in cell viability incubated for 48 hrs by MTT assay; format: functional
Carbonic anhydrase 9 [5] = biological target: T2, Carbonic anhydrase 9 (Homo sapiens, UniProt Q16790); assay: Inhibition of human CA9 preincubated for 15 mins by phenol red dye based stopped flow CO2 hydration assay
Carbonic anhydrase 12 = Carbonic anhydrase 12 (Homo sapiens, UniProt O43570); assay: Inhibition of human CA12 preincubated for 15 mins by phenol red dye based stopped flow CO2 hydration assay
Carbonic anhydrase 2 = Carbonic anhydrase 2 (Homo sapiens, UniProt P00918)
Staphylococcus aureus = assay: microbe, parasite or virus in culture
Candida albicans [6] = assay: Antifungal activity against Candida albicans assessed as reduction in microbial growth; format: functional
Cryptococcus neoformans = assay: Antifungal activity against Cryptococcus neoformans assessed as reduction in microbial growth; format: functional
[7] = Cytotoxicity against human Panel NCI-58 (58 carcinoma cell lines) cells; format: functional
Aspergillus clavatus = assay: Antifungal activity against Aspergillus clavatus; format: functional
Candida albicans [8] = assay: Antifungal activity against Candida albicans; format: functional
Aspergillus niger = assay: Antifungal activity against Aspergillus niger; format: functional
MCF7 = assay: Cytotoxicity against human MCF7 cells; format: functional, cell-based
HepG2 = assay: cells; conditions: Homo sapiens
Acetylcholinesterase [9] = biological target: T1, Acetylcholinesterase; remark: listed apart in the source
Candida albicans [10] = assay: Antifungal activity against Candida albicans by agar dilution method; format: functional
Mus musculus [11] = species on record: Mus musculus; assay: Antidepressant activity in Swiss albino mouse assessed as decrease in immobility time by forced swimming test; format: functional
Mus musculus [12] = species on record: Mus musculus; assay: Antidepressant activity in Swiss albino mouse assessed as decrease in immobility time by tail suspension test; format: functional
[13] = tested on: Mycobacterium tuberculosis; assay: microbe, parasite or virus in culture; conditions: H37Rv
[14] = Antioxidant activity assessed as DPPH radical scavenging activity; format: functional
Carbonic anhydrase 9 [15] = biological target: T2, Carbonic anhydrase 9; assay: Inhibition of human CA9
Mus musculus [16] = assay: Antidiabetic activity against albino mouse assessed as reduction in blood glucose level at 0.2 mmol/Kg relative to control; format: functional; parameters: scale not given: the % may be the effect or the level left
[17] = Growth inhibition of human Panel NCI-58 (58 carcinoma cell lines) cells by SRB method; format: functional
[18] = Cytotoxicity against human Panel NCI-58 (58 carcinoma cell lines) cells by SRB method; format: functional; conditions: read-out: LC50 (the source's name)

Sequence of Carbonic anhydrase 1 (P00915 whole entry): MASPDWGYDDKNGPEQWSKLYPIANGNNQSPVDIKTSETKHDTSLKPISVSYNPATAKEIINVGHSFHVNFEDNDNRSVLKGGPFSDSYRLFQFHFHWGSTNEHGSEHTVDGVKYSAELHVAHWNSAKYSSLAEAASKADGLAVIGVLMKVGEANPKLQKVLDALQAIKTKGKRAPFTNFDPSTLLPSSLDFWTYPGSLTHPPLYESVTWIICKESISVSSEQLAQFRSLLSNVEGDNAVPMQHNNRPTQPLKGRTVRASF
T1 sequence (P22303 whole entry): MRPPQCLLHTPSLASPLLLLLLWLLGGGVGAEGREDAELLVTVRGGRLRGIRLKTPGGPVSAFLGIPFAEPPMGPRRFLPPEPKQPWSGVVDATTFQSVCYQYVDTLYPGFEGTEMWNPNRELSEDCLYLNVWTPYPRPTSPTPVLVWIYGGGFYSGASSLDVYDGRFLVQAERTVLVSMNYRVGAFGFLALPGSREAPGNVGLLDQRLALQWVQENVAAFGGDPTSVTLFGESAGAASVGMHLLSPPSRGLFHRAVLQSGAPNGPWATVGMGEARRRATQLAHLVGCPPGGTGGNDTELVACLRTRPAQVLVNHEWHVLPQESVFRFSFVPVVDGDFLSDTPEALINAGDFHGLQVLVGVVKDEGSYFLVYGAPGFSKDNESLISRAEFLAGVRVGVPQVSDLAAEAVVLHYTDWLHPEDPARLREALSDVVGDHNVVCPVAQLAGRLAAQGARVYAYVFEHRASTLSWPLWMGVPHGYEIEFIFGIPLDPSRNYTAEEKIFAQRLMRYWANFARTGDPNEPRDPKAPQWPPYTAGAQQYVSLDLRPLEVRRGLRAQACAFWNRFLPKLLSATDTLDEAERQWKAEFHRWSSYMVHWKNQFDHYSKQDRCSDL
Sequence of Carbonic anhydrase 12 (O43570 whole entry): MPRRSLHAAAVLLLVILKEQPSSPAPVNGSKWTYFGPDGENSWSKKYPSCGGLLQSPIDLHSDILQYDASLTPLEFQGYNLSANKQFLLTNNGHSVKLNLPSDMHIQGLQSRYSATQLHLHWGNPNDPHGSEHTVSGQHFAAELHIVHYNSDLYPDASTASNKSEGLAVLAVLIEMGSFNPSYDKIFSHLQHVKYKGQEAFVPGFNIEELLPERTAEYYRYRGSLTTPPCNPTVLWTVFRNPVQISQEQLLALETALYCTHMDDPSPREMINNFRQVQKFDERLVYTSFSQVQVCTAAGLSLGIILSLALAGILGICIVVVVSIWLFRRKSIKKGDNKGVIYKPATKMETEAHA

**Q.** Which IC50 (Plasmodium falciparum) does the source give for `COc1cc(C)c(/C=C/C(=O)c2ccc(Br)cc2)cc1C(C)C` here?
**A.** Its IC50 is < 2000 nM.

**Q.** Which IC50 (Acetylcholinesterase [1]) does the source give for `O=C(/C=C/c1ccc(N2CCCCC2)cc1)c1sccc1Cl` here?
**A.** Its IC50 is 160 nM.

**Q.** For `NS(=O)(=O)c1ccc(N2N=C(c3ccc(O)cc3)CC2c2ccccc2)cc1` (stereo not given), which Ki (Carbonic anhydrase 1) is on record?
**A.** Its Ki is 317 nM.

**Q.** What about the CC50 (Ca9-22) of the same molecule?
**A.** The CC50 was 39300 nM.

**Q.** And the CC50 (HSC-2)?
**A.** Its CC50 is 39300 nM.

**Q.** What about the CC50 (HSC-3) of the same molecule?
**A.** The CC50 was 39300 nM.

**Q.** And the CC50 [2]?
**A.** Its CC50 is 39300 nM.

**Q.** And the CC50 [3]?
**A.** The CC50 was 39300 nM.

**Q.** What about the CC50 [4] of the same molecule?
**A.** Its CC50 is 39300 nM.

**Q.** What about the Ki (Carbonic anhydrase 9 [5]) of the same molecule?
**A.** The Ki was 53.5 nM.

**Q.** What about the Ki (Carbonic anhydrase 12) of the same molecule?
**A.** The Ki was 6.2 nM.

**Q.** What about the Ki (Carbonic anhydrase 2) of the same molecule?
**A.** Its Ki is 412 nM.

**Q.** Which MIC (Staphylococcus aureus) does the source give for `COC(=O)C1N=NN(CC(=O)N2N=C(c3ccccc3)CC2c2ccc(OC)cc2)C1C(=O)OC` (stereo not given) here?
**A.** Its MIC is 3.9 µg/mL (≈ 8.13 µM).

**Q.** For `COc1ccc(C2CC(c3cccc(Nc4ccnc5cc(Cl)ccc45)c3)=NN2c2ccccc2)cc1` (stereo not given), which MIC50 (Candida albicans [6]) is on record?
**A.** The MIC50 was 3.9 µg/mL.

**Q.** What about the MIC50 (Cryptococcus neoformans) of the same molecule?
**A.** The MIC50 was 3.9 µg/mL.

**Q.** What about the GI50 [7] of the same molecule?
**A.** The GI50 was < 1000 nM.

**Q.** With `O=C(c1ccncc1)N1N=C(c2cccc([N+](=O)[O-])c2)CC1c1cc2ccccc2nc1Cl` (stereo not given) as the molecule, how does the MIC (Aspergillus clavatus) read?
**A.** Its MIC is 12.5 µg/mL (≈ 27.3 µM).

**Q.** And the MIC (Candida albicans [8])?
**A.** Its MIC is 12.5 µg/mL (≈ 27.3 µM).

**Q.** What about the MIC (Aspergillus niger) of the same molecule?
**A.** The MIC was 12.5 µg/mL (≈ 27.3 µM).

**Q.** With `C[C@]12CC[C@@H]3c4ccc(O)cc4CC[C@H]3[C@@H]1CC1C2=NN(c2ccccc2)C1c1ccc(Br)cc1` (stereo not given in full) as the molecule, how does the IC50 (MCF7) read?
**A.** Its IC50 is 43 nM.

**Q.** Which IC50 (HepG2) does the source give for `CC(=O)N1N=C(c2nnn(-c3ccc(-n4nnc(C5=NN(C(C)=O)C(c6ccccc6)C5)c4C)cc3)c2C)CC1c1ccccc1` (stereo not given) here?
**A.** The IC50 was 57.1 µg/mL.

**Q.** Which Ki (Acetylcholinesterase [9]) does the source give for `COc1ccc(C2CC(c3ccc(Cl)cc3)=NN2c2ccc(S(N)(=O)=O)cc2)c(OC)c1` (stereo not given) here?
**A.** The Ki was 37.7 nM.

**Q.** With `COc1ccc(C2=CC(c3cc(C(C)C)c(OC)cc3C)N(C(=O)OC(C)C)N2C(=O)OC(C)C)cc1OC` (stereo not given) as the molecule, how does the IC50 (Plasmodium falciparum) read?
**A.** Its IC50 is < 2000 nM.

**Q.** For `Cc1ccc2cc(C3CC(c4cc(Br)ccc4O)=NN3)c3nnnn3c2c1` (stereo not given), which MIC (Candida albicans [10]) is on record?
**A.** The MIC was 25 µg/mL (≈ 59.1 µM).

**Q.** What does the source list for `COc1ccc(C2CC(c3ccc(-c4cc(F)cc(F)c4)nc3C)=NN2)cc1OC` (stereo not given)?
**A.** Time (Mus musculus [11]): 66.67 s; Time (Mus musculus [12]): 70.33 s; MIC [13]: 12.5 µg/mL (≈ 30.5 µM)

**Q.** For `Cc1nc(-c2ccc(Br)cc2)ccc1C1=NNC(c2c(F)cccc2Cl)C1` (stereo not given), which Time (Mus musculus [11]) is on record?
**A.** The Time was 66.67 s.

**Q.** And the Time (Mus musculus [12])?
**A.** Its Time is 70.33 s.

**Q.** And the MIC [13]?
**A.** Its MIC is 12.5 µg/mL (≈ 28.1 µM).

**Q.** Which IC50 [14] does the source give for `COc1ccc2c(c1)cc(/C=C/C(=O)c1cc(Br)ccc1O)c1nnnn12` here?
**A.** The IC50 was 25.4 µg/mL (≈ 59.7 µM).

**Q.** What does the source list for `COc1ccc(C2CC(c3cccc(Nc4ccnc5cc(Cl)ccc45)c3)=NN2c2ccc(Cl)cc2)cc1` (stereo not given)?
**A.** MIC50 (Candida albicans [6]): 3.9 µg/mL; MIC50 (Cryptococcus neoformans): < 3.9 µg/mL; MIC (Cryptococcus neoformans; read-out: MIC100): < 3.9 µg/mL; GI50 [7]: < 1000 nM

**Q.** With `COc1ccc(C2=NN(C(=O)c3ccc(S(N)(=O)=O)cc3)C(c3ccc(OC)cc3)C2)cc1` (stereo not given) as the molecule, how does the Ki (Carbonic anhydrase 1) read?
**A.** The Ki was 87.8 nM.

**Q.** And the Ki (Carbonic anhydrase 9 [15])?
**A.** Its Ki is 5.5 nM.

**Q.** What about the Ki (Carbonic anhydrase 2) of the same molecule?
**A.** The Ki was 31.7 nM.

**Q.** Which Activity (Mus musculus [16]) does the source give for `Cc1ccc(C2=NN(c3ccc(S(=O)(=O)NC(=O)Nc4ccc(Cl)cc4)cc3)C(c3ccc(F)cc3)C2)cc1` (stereo not given) here?
**A.** Its Activity is 16%.

**Q.** For `Cc1ccc(C2=NN(c3ccc(S(=O)(=O)NC(=O)Nc4ccccc4)cc3)C(c3ccc(F)cc3)C2)cc1` (stereo not given), which Activity (Mus musculus [16]) is on record?
**A.** The Activity was 16%.

**Q.** With `COc1ccc(C2=NN(C(=O)c3ccc(S(N)(=O)=O)cc3)C(c3ccc(OC)c(OC)c3)C2)c(OC)c1` (stereo not given) as the molecule, how does the Ki (Carbonic anhydrase 1) read?
**A.** Its Ki is 2670 nM.

**Q.** And the Ki (Carbonic anhydrase 9 [15])?
**A.** Its Ki is 5.5 nM.

**Q.** For `Cc1ccc(C(=O)/C=C/c2ccc(N3CCCCC3)cc2)s1`, which IC50 (Acetylcholinesterase [1]) is on record?
**A.** The IC50 was 130 nM.

**Q.** Which Ki (Acetylcholinesterase [9]) does the source give for `COc1ccc(C2CC(c3ccccc3)=NN2c2ccc(S(N)(=O)=O)cc2)c(OC)c1` (stereo not given) here?
**A.** Its Ki is 37.7 nM.

**Q.** With `O=C(c1ccncc1)N1N=C(c2ccccc2Cl)CC1c1cc2ccccc2nc1Cl` (stereo not given) as the molecule, how does the MIC (Aspergillus clavatus) read?
**A.** Its MIC is 12.5 µg/mL (≈ 27.9 µM).

**Q.** And the MIC (Candida albicans [8])?
**A.** Its MIC is 12.5 µg/mL (≈ 27.9 µM).

**Q.** And the MIC (Aspergillus niger)?
**A.** The MIC was 12.5 µg/mL (≈ 27.9 µM).

**Q.** With `O=C(NC1CCCCC1)NS(=O)(=O)c1ccc(N2N=C(c3ccc(Br)cc3)CC2c2ccc(F)cc2)cc1` (stereo not given) as the molecule, how does the Activity (Mus musculus [16]) read?
**A.** Its Activity is 16%.

**Q.** Which GI50 [17] does the source give for `OCCNc1nc(NCCO)nc(Nc2ccc(C3=NN(c4cc(Cl)cc(Cl)c4)C(c4ccc(C(F)(F)F)cc4)C3)cc2)n1` (stereo not given) here?
**A.** Its GI50 is 569 nM.

**Q.** And the CC50 [18]?
**A.** The CC50 was 5150 nM.

**Q.** For `COc1cc(C2CC(c3ccccc3O)=NN2c2cc3ccccc3s2)cc(OC)c1O` (stereo not given), which IC50 (HepG2) is on record?
**A.** Its IC50 is 3570 nM.

**Q.** With `CN1N=C2C(C[C@H]3[C@@H]4CCc5cc(O)ccc5[C@H]4CC[C@]23C)C1c1ccc(Br)cc1` (stereo not given in full) as the molecule, how does the IC50 (MCF7) read?
**A.** The IC50 was 43 nM.

**Q.** For `CCOC(=O)C1N=NN(CC(=O)N2N=C(c3nnn(Cc4ccccc4)c3C)CC2c2cccs2)C1C(=O)OCC` (stereo not given), which MIC (Staphylococcus aureus) is on record?
**A.** Its MIC is 3.9 µg/mL (≈ 6.74 µM).

**Q.** With `COc1ccc2cc(C3CC(c4cc(Br)ccc4O)=NO3)c3nnnn3c2c1` (stereo not given) as the molecule, how does the MIC (Candida albicans [10]) read?
**A.** Its MIC is 25 µg/mL (≈ 56.8 µM).

**Q.** And the IC50 [14]?
**A.** The IC50 was 23.3 µg/mL (≈ 52.9 µM).
